pIC50: −log10 of the molar value. Where two headings read alike, the source gives them in different places.
Assays:
[1] = system: CD34+ cells obtained from a leukemia patient (leukemic cancer stem cells); assay: Cobblestone area forming cell (CAFC) assay, leukemia patient versus cord blood CD34+ cells; format: cell-based, human; details: 10 μM and 75 μM overnight; for sensitivity of leukemia cancer stem cells relative to normal stem cells (cord blood CD34+): CAFC, 5 weeks; for activity against leukemic cancer stem cells (cobblestone area counts vs control): cobblestone areas counted after 5 weeks on MS-5 monolayer, FIGS. 2 and 3
Method: (§1) Cobblestone assay: The cobblestone area-forming cell (CAFC) assay exploits a reproducible visual end point for the quantitation of cancer stem cells. Leukemia samples are added to adherent cultures of stromal cells, some embodiments MS-5 stromal cells. The cancer stem cells in the culture will migrate below the MS-5 stromal cells and form a colony of cells called a cobblestone that can be visual quantitated. To test the effect of cantharidin or norcantharidin on the cancer stem cell population using this assay, cells are first cultured in the presence of the drug. In some embodiments the cells are cultured for 16 hours. After this incubation, the cells are added to the stromal cultures. A reduction in the cobblestone area formation in cultures that were treated with the drug compared to the untreated cells represents cancer stem cell activity for the drug.
Cells were treated with 10 μM and 75 μM cantharidin or norcantharidin overnight. To assay for stem cells by the cobblestone area forming cell (CAFC) assay, CD34^+ cells subsequent to drug treatment were co-cultured with the MS-5 monolayer in X-Eagle minimum essential medium (α-MEM) containing 10% heat-inactivated FCS, 10% horse serum, 1×10^−6 M hydrocortisone, 2 mM L-glutamine, and 100 U/mL penicillin/streptomycin. After 5 weeks in culture, total cobblestone areas were counted. FIGS. 2 and 3 show bar graphs representing cobblestone area counts in the presence of no drug (control) and 10 and 75 μM of cantharidin and norcantharidin, respectively, using CD34+ cells obtained from a leukemia patient, and CD34+normal stem cells isolated from human cord blood.

MV4; 11 leukemia cells = assay: XTT cytotoxicity assay on MV4;11 leukemia cells, 5 days exposure; format: cell-based; details: 5 days of exposure to drug, read-out: IC50, cytotoxicity against MV4;11 leukemia cells (XTT)
Method: (§2) Determination of cell viability using the XTT assay: In some cases, CD34+ cells are isolated from human cord blood using magnetic beads coated with anti-CD34 antibody. Isolated cells are then counted and aliquoted into 96-well plates and then incubated in the presence of varying concentrations of cantharidin or norcantharidin. Cell viability it measured by the addition of the XTT calorimetric reagent. Viability is determined by the absorbance of treated cultures at approximately 450-500 nm compared to untreated cultures. In other cases, the cells used in the assay may be a leukemia cell line, such as MV4; 11. The assay can also be used to determine the time course of cell killing by various compounds by performing the XTT assay on cultures that are incubated with the compounds for varying periods of time.
The cytotoxicity of Cantharidin and Norcantharidin against MV4; 11 leukemia cells was measured by a calorimetric assay using XTT. MV4; 11 cells were plated in 96-well plates and the following day, cells were exposed to varying doses of cantharidin and norcantharidin. After 5 days of exposure to drugs, 50 μL of 1 mg/mL XTT and 0.025 mM phenazine methosulfate (PMS) were added. The absorbance of the supernatant was measured at 450 and 630 nm of wells not treated with drug (with cells) as 100% and wells without cells as 0%.

MV4; 11 cells = assay: XTT time course of killing of MV4;11 cells; format: cell-based; details: at 72 hours
Method: as §2
The XTT assay was used to determine the time course of killing of MV4; 11 cells incubated with cantharidin and norcantharidin over time.
Cantharidin was dissolved in DMSO at different concentrations to ensure that final concentrations of DMSO are equivalent in all wells. To control for potential cytotoxic effects of DMSO itself, an equivalent amount of DMSO containing no drug was used as a control.
Norcantharidin was dissolved in DMSO at different concentrations to ensure that final concentrations of DMSO are equivalent in all wells. To control for potential cytotoxic effects of DMSO itself, an equivalent amount of DMSO containing no drug was used as a control.

[2] = system: CD34+ cells from normal human cord blood; assay: XTT colorimetric cytotoxicity assay on cord blood CD34+ cells; format: cell-based; details: FIG. 1, read-out: IC50, cytotoxicity against CD34+ cells (XTT)
Method: as §2
(§3) CD34^+ cells were obtained from normal human cord blood by magnetic bead selection using anti-CD34 antibody coated beads. The cytotoxicity of cantharidin and norcantharidin against these cells was measured by a colorimetric assay using XTT (sodium 3′-{1-[(phenylamino)-carbonyl]-3,4-tetrazolium}-bis(4-methoxy-6-nitro) benzene-sulfonic acid hydrate). […] The absorbance of the supernatant was measured at 450 and 630 nm of wells without drug (with cells) as 100% and wells without cells as 0%. […]

[3] = system: leukemia stem cells from bone marrow of a patient with acute myelgenous leukemia (AML); assay: CAFC assay of leukemia stem cells treated with cantharidin and standard chemotherapy; format: cell-based, human; details: 16 hours treatment, each of the concentrations tested; cobblestone areas after 5 weeks; FIG. 6
Method: as §1
Samples of primary human cord blood as well as from the bone marrow of a patient with acute myelgenous leukemia (AML) were tested. Cantharidin and norcantharidin were dissolved in DMSO, and Ara-c and daunorubicin were prepared according to the supplier's instructions. In addition, untreated controls (diluent alone) for both normal and leukemic CD34+ cells were also tested. Cells were treated with varying concentrations of drug for 16 hours. […] After 5 weeks in culture, total cobblestone areas were counted visually using a microscope.

[4] = XTT colorimetric cytotoxicity assay on cord blood CD34+ cells; format: cell-based; details: CD34+ cells from normal human cord blood; FIG. 1; read-out: IC50, cytotoxicity against CD34+ cells (XTT)
Method: as §2, §3

| SMILES | sensitivity of leukemia cancer stem cells relative to normal stem cells (cord blood CD34+) [1] | activity against leukemic cancer stem cells (cobblestone area counts vs control) [1] | pIC50 (MV4; 11 leukemia cells) | cell viability of MV4;11 cells (MV4; 11 cells; 30 μM) | cell viability of MV4;11 cells (MV4; 11 cells; 100 μM) | pIC50 [2] | sensitivity of leukemia stem cells compared with cytarabine or daunorubicin (CAFC) [3] | pIC50 (MV4; 11 leukemia cells; Homo sapiens, MV4-11, 120 h) | viability at 30 µM (MV4; 11 cells; Homo sapiens, MV4-11, 30 μM, read-out: cell viability of MV4;11 cells) | viability at 100 µM (MV4; 11 cells; Homo sapiens, MV4-11, 100 μM, read-out: cell viability of MV4;11 cells) | pIC50 [4] |
| --- | --- | --- | --- | --- | --- | --- | --- | --- | --- | --- | --- |
| O=C1OC(=O)[C@H]2[C@@H]1[C@@H]1CC[C@H]2O1 [norcantharidin] | increased sensitivity | potent activity | 4.62 | less than 10% | less than 10% | 4.28 |  |  |  |  |  |
| C[C@@]12C(=O)OC(=O)[C@]1(C)[C@H]1CC[C@@H]2O1 [cantharidin] | increased sensitivity | potent activity |  |  |  |  | more sensitive | 5.12 | < 10% | < 10% | 5.19 |

— patent publication US20080267947A1, “Cancer therapy with cantharidin and cantharidin analogs” (priority 2006, published 2008)
